The source of these data is patent US20230338344A1, “AMPK Activators and Methods of Use Thereof” (Bioverativ Therapeutics Inc., priority 2020, published 2023).

SMILES strings stand for the structures.

For data set [1], the system named is human CD34+ cells from sickle cell donors. Description: Fetal hemoglobin induction in CD34+ cells from patients with sickle cell disease, 14-day differentiation. Type of data set: cell-based. Particulars: 14 days of differentiation, vs DMSO. From the text: To measure the effect of AMPK activators on fetal hemoglobin induction in CD34+ cells from patients with sickle cell disease, circulating CD34+ progenitor cells were isolated from total blood obtained from a sickle cell patients, by performing a positive selection for CD34+ cells with magnetic beads (Miltenyi Biotec). Purified CD34+ cells were differentiated for 14 days. After differentiation, cells were fixed and stained with CD235a, CD71 and fetal hemoglobin antibodies for flowcytometry analysis.

Data set [2] relates to human CD34+ cells. Description: Fetal hemoglobin (HbF) induction in mobilized CD34+ HSPC from healthy individuals during erythroid differentiation, F-cells by flow cytometry. Type of data set: cell-based. As to conditions: healthy donors; for fetal hemoglobin induction, F-cell (HbF+) frequency in enucleated GlyA+ cells: vs DMSO or single agents; for frequency of F-cells (HbF+): compared to vehicle (DMSO). As for the experimental part: Mobilized CD34+ Human Stem/Progenitor Cells (HSPC) from healthy individuals were cultured for 3 days in a maintenance media consisting of X-VIVO 10 (VWR), 100 U/mL penicillin-streptomycin (ThermoFisher), 2 mM L-glutamine (Fisher Scientific), 100 ng/mL Recombinant Human Stem Cell Factor (SCF), 100 ng/mL Recombinant Human Thrombopoietin (TPO) and 100 ng/mL Recombinant Human Flt-3 Ligand (Flt-3L) (all three from ThermoFisher). Cells were differentiated into erythroid cells using a three-step differentiation protocol developed by the Luc Douay group (Giarratana et al. 2005). […] On day 7, cells were transferred to step 2 media, a step 1 media without hydrocortisone and IL-3, and cultured for 3-4 days. Then cells were cultured for 8-9 days in step 3 media, a step 2 media without SCF. […] To determine the percentage of HbF-positive cells (F-cells), differentiate cells were fixed and permeabilized using a fixation kit (ThermoFisher). Cells were stained with PE-Cy7-conjugated anti-CD235 or PE-conjugated anti-CD71 antibodies. HbF levels were detected using Allophycocyanin (APC)-conjugated anti-HbF antibody (ThermoFisher). The acquisition of stained cells was performed on BD FACSCanto™ and the analysis was run using FlowJo™ Software.
Human CD34+ cells were exposed to β1-selective AMPK activators and pan-AMPK activators during the 21-day differentiation process. To assess fetal hemoglobin expression level, cells were fixed and stained with CD235a, CD71 and fetal hemoglobin antibodies for flowcytometry analysis.
After 14 days of differentiation, cells were fixed and stained with CD235a, CD71 and fetal hemoglobin antibodies for flowcytometry analysis.

Data set [3] has as its target T1, AMPK (Homo sapiens, UniProt Q13131+Q9Y478).
T1 construct: endogenous in cells; host or cells: mobilized human CD34+ HSPC from a healthy donor, day 11 of erythroid differentiation
Kind of data set: AMPK target engagement: Thr172 phosphorylation of alpha-AMPK (Alpha SureFire Ultra Multiplex) in CD34+ cells at day 11 of differentiation. Type of data set: cell-based. Particulars: differentiated CD34+ cells.

For data set [4], the system named is AMPK. Kind of data set: AMPK target engagement: Thr172 phosphorylation of alpha-AMPK (Alpha SureFire Ultra Multiplex) in undifferentiated HUDEP-2 cells. Type of data set: cell-based, human. Here is the method:
Phosphorylation of AMPK at threonine 172 (Thr172) on the α-subunit of AMPK was assessed by […] using the Alpha SureFire Ultra Multiplex p-AMPKα1/2 (Thr172)+Total AMPKα1/2 Assay Kit from Perkin Elmer as a target engagement assay. The assay kit contains antibodies, coupled with fluorophore Europium, which recognize the phospho-Thr172 epitope and a distal epitope on α-AMPK of human or mouse AMPK. The kit also contains antibodies coupled with the fluorophore Terbium to measure the total levels of AMPK. […] As to the human HUDEP-2 cells line, cells were undifferentiated during exposure to AMPK activators. According to the time course, cells were collected and lysed using RIPA buffer mixed with a phosphatase and protease inhibitors cocktail (Thermofisher). Phospho-AMPK signal was divided by total AMPK signal and the ratio was normalized to the total protein concentration. Samples protein concentrations were measured with the Pierce BSA Protein Assay (ThermoFisher).

Data set [5] concerns HBG (human gamma-globin) mRNA. Kind of data set: gamma-globin (HBG) mRNA in Townes mouse bone marrow by qRT-PCR. Type of data set: in vivo. As to conditions: HbAA mice bone marrow, 2 days of exposure, 100 mg/kg. Here is the method:
Total RNA from Townes mouse bone marrow cells was prepared using a RNeasy Mini kit (Qiagen). A quantity of 1 μg of mRNA was reverse transcribed using an iVILO Retro Transcription kit (ThermoFisher). 50 ng of the resulting cDNA was amplified by Taqman amplification in a QuantStudio thermocycler (Life Technologies) using HBG (human 7-globin primers) as gene of interest, and GAPDH (mouse gapdh primers) as a housekeeping gene (Life Technologies). The delta Ct was calculated and difference in mRNA expression was expressed as a fold-change to vehicle condition.

The next data set concerns M1 macrophages. Description: Macrophage polarization to pro-inflammatory M1 phenotype, markers by flow cytometry. Particulars: M-CSF polarized macrophages activated by IFN-γ or LPS for 24 h. Type of data set: cell-based, human. As for the experimental part:
M1 macrophages were induced by stimulation with M-CSF (50 ng/mL) for 6 days, then activated by IFN-7 or LPS for 24 h, fixed, stained for M1 polarization markers CD38, CD64, CD86 and CD80 and acquired by flowcytometry.
A general note: In flow cytometry, cells or beads pass a laser one at a time.

Data set [6] concerns human CD34+ cells. Description: Maturation of CD34+ cells to erythrocytes: enucleation (NucRed) and markers CD71/CD235a by flow cytometry. Type of data set: cell-based. Here is the method: During human CD34+ cells differentiation, maturation is measured by quantification of enucleation and expression of markers CD71 and CD235a, and assessed by flowcytometry. […] As well, cells were stained for markers CD235a and CD71. The acquisition was performed on BD FACSCanto™ and the analysis was done using FlowJo™ Software.

A short description of data set [7]: 7-day toxicological study in rats, hematological erythroid parameters. Type of data set: in vivo, Crl:CD (Sprague Dawley) rats. Particulars: rats, 100, 300 and 1000 mg/kg/day PO QD 7 days, blood on day 8. As for the experimental part:
On day 8, blood samples were drawn and complete blood counts (CBC) were tested on a hematology analyzer to determine red blood cell counts (10^6 RBC/μL), hemoglobin (Hb, g/dL) and hematocrit (HCT, %).

Data set [8] has as its system Nrf2-oxidative stress response pathway. Kind of data set: Transcriptomic and proteomic analysis of human CD34+ cells differentiated 14 days (correlation study, IPA). Type of data set: cell-based. Particulars: 3 healthy donors. Here is the method: At day 14, RNA was extracted with Trizol reagent (Invitrogen). DNase treatment, RNA integrity and quantification, libraries generation and sequencing (Illumina HiSeq platforms HiSeq 2500) were realized according to Genewiz protocol (South Plainfield, NJ). Concerning the proteomic analysis, proteins were extracted from the same CD34+ cells used for the transcriptomic analysis. Samples preparation, proteins digestion, peptides TMT labeling and proteomic analysis were performed according to IQ Proteomics (Cambridge, MA). Bioinformatics analysis have been conducted to determine the differential expression of mRNA and proteins, and a correlation study using the differential expression from the transcriptomic analysis and the differential expression from the proteomics analysis has been run. […] SQSTM1 is known to activate Nrf2 by inhibiting Keapl, and Nrf2 pathway is known to induce HO-1 for antioxidative function in cells.

Data set [9] relates to Reactive Oxidative Species (ROS). Kind of data set: Reactive Oxidative Species (ROS) in bone marrow from Townes SCD mice by flow cytometry. Type of data set: in vivo, mouse. As to conditions: 100 mg/kg PO QD 15 days, vs HbSS mice treated with vehicle.
The test system of the next data set is fetal hemoglobin protein. Description: Human fetal hemoglobin protein in Townes mice bone marrow by flow cytometry, 15-day study. Type of data set: in vivo, mouse. As to conditions: HbSS Townes mice, 100 mg/kg PO QD 15 days, vs vehicle.

T1 sequence (Q13131 whole entry): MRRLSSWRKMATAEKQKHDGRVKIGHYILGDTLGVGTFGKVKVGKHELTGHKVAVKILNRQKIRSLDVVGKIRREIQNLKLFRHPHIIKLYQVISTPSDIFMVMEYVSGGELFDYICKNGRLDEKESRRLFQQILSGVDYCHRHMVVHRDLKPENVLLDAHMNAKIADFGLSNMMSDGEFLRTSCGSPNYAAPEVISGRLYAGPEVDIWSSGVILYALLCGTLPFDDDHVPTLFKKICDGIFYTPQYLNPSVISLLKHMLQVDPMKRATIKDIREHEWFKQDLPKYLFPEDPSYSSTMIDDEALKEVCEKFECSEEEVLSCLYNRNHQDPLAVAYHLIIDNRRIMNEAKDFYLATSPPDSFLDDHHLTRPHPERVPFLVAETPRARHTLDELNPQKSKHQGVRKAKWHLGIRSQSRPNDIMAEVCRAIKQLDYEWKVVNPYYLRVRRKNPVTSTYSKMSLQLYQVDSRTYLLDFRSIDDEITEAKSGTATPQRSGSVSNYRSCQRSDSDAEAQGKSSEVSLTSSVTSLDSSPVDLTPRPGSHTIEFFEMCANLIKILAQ
T1 sequence (Q9Y478 2-270): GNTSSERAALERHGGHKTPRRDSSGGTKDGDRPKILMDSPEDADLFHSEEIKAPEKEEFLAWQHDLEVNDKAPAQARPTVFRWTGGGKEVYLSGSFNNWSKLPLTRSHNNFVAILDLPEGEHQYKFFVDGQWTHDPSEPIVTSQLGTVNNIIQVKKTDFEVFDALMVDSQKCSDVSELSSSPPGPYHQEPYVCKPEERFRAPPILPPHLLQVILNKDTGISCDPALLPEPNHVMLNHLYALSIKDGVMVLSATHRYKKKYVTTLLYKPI
T1 sequence (P54619 whole entry partner): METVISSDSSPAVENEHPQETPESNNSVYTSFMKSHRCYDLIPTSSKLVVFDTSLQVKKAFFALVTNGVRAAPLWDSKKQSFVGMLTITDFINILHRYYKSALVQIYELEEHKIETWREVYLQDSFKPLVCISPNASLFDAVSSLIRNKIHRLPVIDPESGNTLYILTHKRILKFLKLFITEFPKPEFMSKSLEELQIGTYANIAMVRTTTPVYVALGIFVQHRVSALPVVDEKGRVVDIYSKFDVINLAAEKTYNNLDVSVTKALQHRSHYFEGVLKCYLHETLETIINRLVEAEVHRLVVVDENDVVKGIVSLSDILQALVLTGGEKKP
From the text for fetal hemoglobin protein: These mice express the genes for human HbS (homozygous HbSS), express the physiopathological phenotype of SCD and are called “HbSS-Townes mice”, whereas the control Townes mice express the genes for human HbA without the sickle mutation (homozygous HbAA), are healthy, and are called “HbAA-Townes mice” (Jackson Laboratory). These control HbAA-Townes mice were created by replacing the murine globin genes with human α-globin gene (genotype: Hba hα/hα) and linked human βA− and fetal Aγ-globins (genotype: Hbb hAγβA/hAγβA), whereas HbSS-Townes mice were created by replacing the murine adult α-globin genes with the human α-globin gene (genotype: Hba hα/hα), and the murine adult β-globin genes were replaced with human sickle βS− and fetal Aγ-globin gene fragments linked together (genotype: Hbb hAγβS/hAγβS).

In the case of `NC(=O)NO` [Hydroxyurea, hydroxyurea], the “F-cell (HbF+) frequency in enucleated GlyA+ cells” value in [1] is reported as “increase”. In addition, the “fetal hemoglobin induction, F-cell (HbF+) frequency in enucleated GlyA+ cells” value in the data set on human CD34+ cells [2] (14 days of differentiation) was “increases”. For the same compound, in the data set with human CD34+ cells [2] (14 days of differentiation, vs Vehicle (DMSO)), the “fold change in fetal hemoglobin expression compared to control” value was 1,5 fold.
In the case of `COc1cccc(-n2c(=O)[nH]c3cc(Cl)n(-c4ccc(-c5cccc(OC)c5O)cc4)c3c2=O)c1` [Compound 4], the “time of peak AMPK phosphorylation (Thr172, pAMPK/total AMPK)” value (“time … (Thr172, pAMPK/total AMPK)” below) at AMPK [3] is “around 3 hour”; with AMPK [4] it was “around 1 hours”. Moreover, the “frequency of F-cells (HbF+)” value in the data set with human CD34+ cells [2] (21 days of differentiation) is given as “increase”.
Take `O=C(O)c1c[nH]c2cc(Cl)c(-c3ccc(C4(O)CCC4)cc3)cc12` [Compound 1]: the “mRNA for human HbF (human γ-globin, HBG) increase” value in [5] is given as “not”. Further, in the data set with M1 macrophages, the “expression of proinflammatory M1 marker CD38” value is recorded as “decreased”, the “expression of proinflammatory M1 marker CD64” value was “decreased”, the “expression of proinflammatory M1 marker CD80” value was “decreased” and the “expression of proinflammatory M1 marker CD86” value is reported as “decreased”. Moreover, the “expression of differentiation markers CD71 and CD235a” value with human CD34+ cells [6] (after 14 days of differentiation) was “unchanged”. In the data set with human CD34+ cells [6] (after 21 days of differentiation), the “enucleation of CD34+ cells” value is reported as “no effect”. In [7], the hematocrit entry is recorded as “does not reduce”, the hemoglobin result was “does not reduce” and the “red blood cell counts (RBC)” value is on record as “does not reduce”. Besides, in data set [8], the “Nrf2-antioxidant response element signaling pathway (IPA of proteomics data)” value was “activated”. Also, in data set [8] (vs DMSO), the “HO-1 (HMOX1) protein regulation” value is listed as “upregulated” and the SQSTM1 protein regulation entry is recorded as “upregulated”. The “F-cell (HbF+) frequency in enucleated GlyA+ cells” value in data set [1] is on record as “increase”. Besides, the “ROS in bone marrow” value in [9] is recorded as “decrease”. In addition, in the data set with fetal hemoglobin protein, the “fetal hemoglobin protein expression in bone marrow” value was “increase”. In the data set on human CD34+ cells [2] (14 days of differentiation), the “fetal hemoglobin induction, F-cell (HbF+) frequency in enucleated GlyA+ cells” value is “increases”. Further, in the data set on human CD34+ cells [2] (21 days of differentiation), the “increase of HbF+ cells compared to DMSO” value was “about 2 fold” and the “frequency of F-cells (HbF+)” value is “increase”.
In the case of `N#Cc1c(O)c2c(-c3ccc(-c4ccccc4O)cc3)csc2[nH]c1=O` [Compound 2], in the data set with AMPK [4], the “time … (Thr172, pAMPK/total AMPK)” value is recorded as “around 1 hours”. The “frequency of F-cells (HbF+)” value in the data set on human CD34+ cells [2] (21 days of differentiation) is “increase”.
With `OCCOc1cc(F)c(COc2nc3nc(O[C@@H]4CO[C@H]5[C@@H]4OC[C@H]5O)[nH]c3cc2Cl)c(F)c1` [Compound 3], the figures for the “time … (Thr172, pAMPK/total AMPK)” value at AMPK [3] and in the data set on AMPK [4] were “around 3 hour” and “around 1 hours”, respectively. Moreover, the “frequency of F-cells (HbF+)” value with human CD34+ cells [2] (21 days of differentiation) is “increase”.
